Laboratory results reported in PubChem BioAssay (NCI).
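Exposure lasted 48 hours, with cells grown in 96-well plates and compounds tested at five concentrations. Definition used: TGI = concentration required for complete inhibition of growth.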

Columns and labels:
Test in all cases: NCI tumour cell line growth inhibition, 48 h
M19-MEL melanoma = system: M19-MEL melanoma
DMS 273 small cell lung = system: DMS 273 small cell lung
DLD-1 colon = system: DLD-1 colon
XF 498 CNS = system: XF 498 CNS
HOP-18 NSCLC = system: HOP-18 NSCLC
LXFL 529 NSCLC = system: LXFL 529 NSCLC
DMS 114 small cell lung = system: DMS 114 small cell lung
RXF-631 renal = system: RXF-631 renal
BT-549 breast = system: BT-549 breast

| SMILES | TGI (M19-MEL melanoma) [µM] | TGI (DMS 273 small cell lung) [µM] | TGI (DLD-1 colon) [µM] | TGI (XF 498 CNS) [µM] | TGI (HOP-18 NSCLC) [µM] | TGI (LXFL 529 NSCLC) [µM] | TGI (DMS 114 small cell lung) [µM] | TGI (RXF-631 renal) [µM] | TGI (BT-549 breast) [µM] |
| --- | --- | --- | --- | --- | --- | --- | --- | --- | --- |
| CC1OC(n2ccc(=O)[nH]c2=O)C=C(OC(=O)c2ccccc2)C1=O (stereo not given) | > 100 | > 100 | > 100 | > 100 | > 100 |  |  |  |  |
| COc1ccc2c(c1)C(=O)N1CCOC1C2C(=O)O (stereo not given) | > 100 | 11.2 | > 100 | > 100 | > 100 | > 100 | > 100 | > 100 |  |
| N#CC(C(=O)/C(=N/NC(=O)c1ccccc1O)C(C#N)c1ccccc1)c1ccccc1 (stereo not given) | > 100 | > 100 | > 100 | > 100 | > 100 | > 100 | > 100 | > 100 |  |
| Cc1cc(NS(=O)(=O)c2ccc(NC(=O)c3ccc4[nH]c5ccccc5c(=O)c4c3)cc2)no1 |  |  |  |  |  |  |  |  | > 100 |
| COc1ccc(NC(=O)CC(=O)N2N=C(N(CCC#N)c3ccccc3Cl)CC2c2ccccc2)cc1 (stereo not given) | > 100 | > 100 | > 100 | > 100 | > 100 | > 100 | > 100 | > 100 |  |
| S=c1nc(Cc2ccc(Cl)cc2)[nH][nH]1 |  |  |  |  |  |  |  |  | > 100 |
| Cc1n[nH]c(=O)n1C1CCCC1 |  |  |  |  |  |  |  |  | > 100 |
| CN(C)CCC(O)(c1ccccc1)C(O)(CCN(C)C)c1ccccc1 (stereo not given) | > 100 |  | > 100 | > 100 |  | > 100 | > 100 |  |  |
| COC(=O)[C@H](Cc1ccccc1)NC(=O)N1CCCN(C(=O)N[C@@H](Cc2ccccc2)C(=O)OC)CCCN(C(=O)N[C@@H](Cc2ccccc2)C(=O)OC)CCC1 |  |  |  |  |  |  |  |  | 57.1 |
| COC(=O)C(C)(C)OCc1ccc(C2NC(=O)N(c3cccc(Cl)c3)C(=O)N2c2cccc(Cl)c2)cc1 (stereo not given) |  |  |  |  |  |  |  |  | > 100 |
| O=c1[nH]c2ccc(Cl)cc2c2oc(-c3ccccc3)nc12 |  |  |  |  |  |  |  |  | > 100 |
| CC1=NNC(=O)C1C1CC(c2c[nH]c3ccccc23)=NNC1=S (stereo not given) |  |  |  |  |  |  |  |  | > 100 |
| CCOC(O)(NC(=O)C(C(F)(F)F)C(F)(F)F)C(F)(F)F (stereo not given) |  |  |  |  |  |  |  |  | > 100 |
| Cc1ccc(Cc2n[nH]c(=O)n2/N=C\CC/C=N\n2c(Cc3ccc(C)cc3)n[nH]c2=O)cc1 |  |  |  |  |  |  |  |  | > 100 |
| CCOc1ccc(NC(=O)C2=C(C)NC(C)=C(C(=O)Nc3ccc(OCC)cc3)C2c2ccc(O)c(OC)c2)cc1 | > 100 |  | > 100 | 52 |  | > 100 | > 100 | > 100 |  |
| O=S(=O)(N/N=C1\CC2CCC1C2)c1ccccc1 (stereo not given) |  |  |  |  |  |  |  |  | > 100 |
| CCCOC(=O)C1CCC(=O)N1C(=O)C(C)Cl (stereo not given) | > 100 | > 100 | > 100 | > 100 | > 100 | > 100 | > 100 |  |  |
| CC(C)CC[C@H](O)[C@@H](C)[C@H]1[C@@H](OC2OC(C)C(O)C(O)C2O)C[C@H]2[C@@H]3CC=C4C[C@@H](O)CC[C@]4(C)[C@H]3[C@@H](O)C[C@]12C (stereo not given in full) |  |  |  |  |  |  |  |  | > 100 |
| CCOCN1COCN=C1NC#N |  | > 100 | > 100 | > 100 | > 100 | > 100 | > 100 | > 100 |  |
| N#CCCN(c1ccc(/C=C2\N=C(Cc3ccccc3)OC2=O)cc1)S(=O)(=O)c1ccccc1 |  | > 100 | > 100 | > 100 |  | > 100 | > 100 |  |  |
| CC(=O)O[C@]12CCCCC1C1(O)C(O)CCCCC12 (stereo not given in full) | > 100 | > 100 |  |  | > 100 | > 100 | > 100 |  |  |
| Cc1ncc([N+](=O)[O-])n1CCN(C)C(=O)CCCn1ccnc1[N+](=O)[O-] |  |  |  |  |  |  |  |  | > 100 |
| Cc1ccc(Cc2n[nH]c(=O)n2-c2ccccc2)cc1 |  |  |  |  |  |  |  |  | > 100 |
| C=C1[C@H](OC(=O)C(C)C)[C@]23CC4(O)[C@@H]5[C@@]6(C)CCC[C@]57C([C@@H]2C[C@@]1(O)[C@H](O)[C@@H]73)N4C6 |  |  |  |  |  |  |  |  | > 100 |
| C#CCNC(=O)NCCCC(NC(C)=O)C(=O)NCc1ccccc1 (stereo not given) | > 100 |  | > 100 |  | > 100 | > 100 | > 100 | > 100 |  |
| COC(=O)C1CCC(Nc2ccc(C)cc2C)=N1 (stereo not given) | > 100 | > 100 | > 100 | > 100 | > 100 | > 100 |  | > 100 |  |
| CCN(CC)c1ccc(/C=C2/C[N+](C)(C)C/C(=C/c3ccc(N(CC)CC)cc3)C2=O)cc1 | 2.84 |  | > 100 | 6.59 | 25 | 2.81 | 3.38 | > 100 | 3.43 |
| O=C(c1ccco1)N(Cc1ccco1)C(=S)Nc1ccccc1 |  |  |  |  |  |  |  |  | 36.3 |
| N#CC(/C(=N/NC(=O)C(=O)NN)C(=O)Nc1nc([N+](=O)[O-])cs1)c1ccc(Cl)cc1 (stereo not given) | > 100 |  | > 100 | > 100 |  | > 100 | > 100 |  |  |
